Test results from patent publication US20120027720A1, “PEPTIDE CONJUGATES” (priority 2008, published 2012).
*1 amine or outer side, *2 acyl side, *3 side chain or, on linkers, in order; H or OH if unused. Where no end group is shown, it is not given here. [ ]: non-standard residue; d: D form. Pen(Acm) = L-S-acetamidomethyl-penicillamine, CC(=O)NCSC(C)(C)[C@H](N[*:1])C(=O)[*:2]; Cys(StBu) = L-S-tert-butylthio-cysteine, CC(C)(C)SSC[C@H](N[*:1])C(=O)[*:2]; Cys(Bzl) = L-S-benzyl-cysteine, O=C([C@H](CSCc1ccccc1)N[*:1])[*:2]; Met(O2) = CS(=O)(=O)CC[C@H](N)C(=O)O; Met(O) = CS(=O)CC[C@H](N)C(=O)O; 2Thi = N[C@@H](Cc1cccs1)C(=O)O; Cha = N[C@@H](CC1CCCCC1)C(=O)O; Phg = N[C@H](C(=O)O)c1ccccc1; Tle = CC(C)(C)[C@H](N)C(=O)O; hSer = N[C@@H](CCO)C(=O)O; Nle = CCCC[C@H](N)C(=O)O; Nva = CCC[C@H](N)C(=O)O; Abu = CC[C@H](N)C(=O)O; Dap = NC[C@H](N)C(=O)O

Tests used:
[1] = system: CaCo2 monolayers; assay: Epithelial flux of Lucifer Yellow through cell monolayer; type: cell-based; parameters: key to Enhanced LY permeability: + indicates an enhancement of the permeability of the tight junctions were observed; − indicates no enhancement of permeability was observed; conditions: Lucifer Yellow flux, Caco-2 monolayer
Excerpt: (§1) Agonists of tight junctions can be identified by their ability to enhance the flux of compounds (e.g. ions, Lucifer Yellow) through a cell monolayer that comprises tight junctions; or by their ability to reduce TEER across a cell monolayer that comprises tight junctions. Treatment of CaCo2 monolayers with peptide FCIGRL (SEQ ID NO: 1) led to a 51-fold enhancement of Lucifer Yellow permeability through CaCo2 monolayers compared to vehicle alone. Treatment of CaCo2 monolayers with peptide FCIGRL led to a 16-fold decrease in TEER across CaCo2 monolayers compared to vehicle alone.
(§2) Determination of TEER and Lucifer Yellow Flux
(§3) Prepare Modified Hank's Balanced Salt Solution (MHBSS) by obtaining 1 L bottle of HBSS removing 10 ml of HBSS and replacing it with 10 ml HEPES buffer pH 7.0. Adjust pH to 7.4±0.1 using concentrated NaOH (10N).
(§4) Remove Caco-2 cells from incubator, grown on 12-well, […], polycarbonate Transwell® filters (Corning) and record passage#, date cells seeded and age in days.
(§5) Aspirate cell culture medium from both the apical (AP) and basolateral (BL) compartments, replacing with 0.5 ml and 1.5 ml of MHBSS, respectively. Incubate cells at 37° C. for 30 minutes.
(§6) Aspirate solution from the apical compartment of each filter (n=3 per condition) and replace with 0.5 ml of control and test solutions containing Lucifer Yellow and test compound if appropriate.
(§7) Place all plates into incubator set at 37° C. (±0.2), 50 RPM (±5) for a total of 180 minutes.
At t=60, 120 and 180 minutes remove 100 μl from each basolateral compartment and place it in a 96-well plate for Lucifer Yellow analysis, replace with 100 μl of MHBSS.
Make a Lucifer Yellow standard curve with the following dilutions (7500 μM, 3750 μM, 750 μM, 375 μM, 75 μM, 37.5 μM, 7.5 μM, 3.75 μM, 0.75 μM) and pipette […] of each into a 96-well plate except for the first three standards mentioned above which require a 1:10 dilutions prior to transferring to the 96-well plate.
Harvest the remaining start solutions and what is left in each apical compartment into 1.5 ml vials. Freeze at −20° C. for future analysis.
Analyze each 96-well plate in a Tecan Spectra Fluor Plus using Magellan at 485 and 535 nm.
(§8) Cells: Caco-2 cells passage 40-60 grown on Transwell® plates for 21-28 days
(§9) Culture Medium: DMEM supplemented with 10% fetal bovine serum, 1% NEAA, 1% Penn/Strep
(§10) Buffers: Hank's Balanced Salt Solution (HBSS) without calcium and magnesium
(§11) Flasks: 100×20 mm Tissue culture dish Falcon.
(§12) Plates: 12 well polycarbonate Transwell® filters; 0.3 uM pore size

[2] = system: CaCo2 monolayers; assay: Trans Epithelial Electric Resistance (TEER) across cell monolayer; type: cell-based; parameters: key to Reduced TEER: + indicates an enhancement of the permeability of the tight junctions were observed; − indicates no enhancement of permeability was observed; conditions: Caco-2 monolayer
Excerpt: as §1, §2, §3, §4, §5
Using the MilliCell®-ERS instrument (Millipore), measure and record the transepithelial electrical resistance (TEER) across each filter and record.
as §6, §7
At t=30, 60, 120 and 180 minutes, measure and record the transepithelial electrical resistance (TEER) across each filter using the MilliCell-ERS instrument.
as §8, §9, §10, §11, §12

Row | Substance | Enhanced LY permeability [1] | Reduced TEER [2]
1 | 116 (FMIGRL; also: peptide conjugate) [compound 116] | − | −
2 | 117 (FLIGRL-NH2; also: peptide conjugate) [compound 117] | − | −
3 | 118 (FFLIGRL-NH2; also: peptide conjugate) [compound 118] | + | +
4 | 119 (FFIGRL; also: peptide conjugate) [compound 119] | − | +
5 | 120 (FPIGRL; also: peptide conjugate) [compound 120] | − | −
6 | 121 (FWIGRL; also: peptide conjugate) [compound 121] | + | +
7 | 123 (FPIGRL; also: peptide conjugate) [compound 123] | − | −
8 | 124 (FDIGRL; also: peptide conjugate) [compound 124] | − | −
9 | 125 (FLIGRL-NH2; also: peptide conjugate) [compound 125] | + | +
10 | 126 (FFIGRL-NH2; also: peptide conjugate) [compound 126] | + | +
11 | 128 (FGIGRL; also: peptide conjugate) [compound 128] | + | −
12 | 129 (FQIGRL; also: peptide conjugate) [compound 129] | − | −
13 | 130 (FEIGRL; also: peptide conjugate) [compound 130] | − | −
14 | 132 (FNIGRL; also: peptide conjugate) [compound 132] | − | +
15 | 133 (FYIGRL; also: peptide conjugate) [compound 133] | − | −
16 | 134 (FLIGRL; also: peptide conjugate) [compound 134] | − | −
17 | 135 (FVIGRL; also: peptide conjugate) [compound 135] | + | +
18 | 136 (FIIGRL; also: peptide conjugate) [compound 136] | + | +
19 | 138 (LRGILF-NH2; also: peptide conjugate) [compound 138] | + | +
20 | 139 (FLIGR-NH2; also: peptide conjugate) [compound 139] | − | −

Row | Substance | Enhanced LY permeability [1] | Reduced TEER [2]
21 | 140 (H-F[2Thi]IGRL-OH; SMILES CC[C@H](C)[C@H](NC(=O)[C@H](Cc1cccs1)NC(=O)[C@@H](N)Cc1ccccc1)C(=O)NCC(=O)N[C@@H](CCCNC(=N)N)C(=O)N[C@@H](CC(C)C)C(=O)O) [compound 140] | − | −
22 | 142 (H-F[Abu]IGRL-OH; SMILES CC[C@H](NC(=O)[C@@H](N)Cc1ccccc1)C(=O)N[C@H](C(=O)NCC(=O)N[C@@H](CCCNC(=N)N)C(=O)N[C@@H](CC(C)C)C(=O)O)[C@@H](C)CC) [compound 142] | − | −
23 | 143 (H-F[Met(O)]IGRL-OH; not fully specified; also: peptide conjugate, Xaa: 'may be' L-methionine-sulfoxide) [compound 143] | − | −
24 | 144 (H-F[Met(O2)]IGRL-OH; not fully specified; also: peptide conjugate, Xaa: 'may be' L-methionine-sulfone) [compound 144] | − | −
25 | 145 (H-F[dC]IGRL-OH; also: peptide conjugate) [compound 145] | + | +
26 | 146 (H-F[Nva]IGRL-OH; not fully specified; printed as H-Phe-Nva-Ile-Gly-Arg-Leu-OH; also: peptide conjugate, Xaa: 'may be' norvaline) [compound 146] | − | −
27 | 147 (H-F[Nle]IGRL-OH; not fully specified; printed as H-Phe-Nle-Ile-Gly-Arg-Leu-OH; also: peptide conjugate, Xaa: 'may be' L-norleucine) [compound 147] | − | −
28 | 148 (Ac-F[hSer]IGRA; also: peptide conjugate) [compound 148] | + | +
29 | 150 (Ac-F[hSer]IGRF; also: peptide conjugate) [compound 150] | + | +
30 | 151 (F[hSer]IGRF; also: peptide conjugate, Xaa: 'may be' homoserine) [compound 151] | − | −
31 | 152 (F[Cys(Bzl)]IGRL; also: peptide conjugate, Xaa: 'may be' L-S-benzyl-cysteine) [compound 152] | − | −
32 | 153 (F[Cys(StBu)]IGRL; also: peptide conjugate, Xaa: 'may be' L-S-tert-butylthio-cysteine) [compound 153] | − | −
33 | 154 (F[Phg]IGRL-OH; not fully specified; printed as Phe-Phg-Ile-Gly-Arg-Leu-OH; also: peptide conjugate, Xaa: 'may be' L-phenylglycine) [compound 154] | + | +
34 | 155 (F[dV]IGRL-OH; also: peptide conjugate) [compound 155] | − | −
35 | 156 (F[Cha]IGRL-OH; also: peptide conjugate) [compound 156] | − | −
36 | 157 (F[Tle]IGRL-OH; not fully specified; also: peptide conjugate, Xaa: 'may be' L-tert-butylglycine) [compound 157] | + | +
37 | 159 (F[L‑(R,S)‑3,4‑cis‑methanoproline]IGRL; not fully specified; also: peptide conjugate) [compound 159] | − | +
38 | 160 (F[Dap]IGRL; not fully specified; printed as Phe-Dpr-Ile-Gly-Arg-Leu; also: peptide conjugate) [compound 160] | + | +
39 | 161 (F[Pen(Acm)]IGRL; also: peptide conjugate) [compound 161] | + | +
